According to US11648248B1 (King Abdulaziz University, priority 2022, dated 2023):
≈ marks a conversion by molar mass, not a printed value.

How the values were obtained:
[1] = system: multi-drug resistant staphylococcal strains; assay: MIC against panel of staphylococcal strains; format: cell-based; conditions: Staphylococcus; range over the staphylococcal panel; read-out: MIC values, tested staphylococcal strains
From the text: Based upon the initial results obtained, the active compounds were further screened against additional clinical isolates of methicillin-sensitive S. aureus (MSSA), methicillin-resistant S. aureus (MRSA), vancomycin-resistant S. aureus (VRSA), Staphylococcus epidermidis, vancomycin-resistant Enterococcus faecium (VRE), vancomycin-resistant Enterococcus faecalis (VRE) and Streptococcus pneumoniae, as presented in Table 2. Additionally, we examined whether the compounds were bacteriostatic (inhibit bacteria from growing) or bactericidal (kill bacteria) by determining the minimum bactericidal concentration (MBC). The MBC was determined by plating 5 μL from each well where no growth was present (in the MIC plates) onto tryptic soya agar plates and incubating plates at 37° C. for 24 hours. The MBC was categorized as the lowest concentration that generated a 99.9% reduction in bacterial colony-forming units (Table 3).
The minimum inhibitory concentrations (MICs) of the tested compounds and control drugs; linezolid, vancomycin, gentamicin (antibiotics) and fluconazole and 5-fluorocytosine (5-FC) (antifungal drugs) were determined using the broth microdilution method, according to guidelines outlined by the Clinical and Laboratory Standards Institute (CLSI)^1, 2, 3 against clinically-relevant bacterial (methicillin-resistant Staphylococcus aureus (MRSA), Escherichia coli and Clostridium difficile strains) and fungal (Candida albicans) strain. S. aureus and E. coli were grown aerobically overnight on tryptone soy agar plates at 37° C. C. difficile was grown anaerobically on brain heart infusion supplemented agar at 37° C. for 48 hours. C. albicans was grown aerobically overnight on yeast peptone dextrose (YPD) agar plate at 35° C. Afterwards, a bacterial solution equivalent to 0.5 McFarland standard was prepared and diluted in cation-adjusted Mueller-Hinton broth (CAMHB) (for S. aureus and E. coli) to achieve a bacterial concentration of about 5×10^5 CFU/mL. C. difficile was diluted in brain heart infusion supplemented broth, supplemented with yeast extract, hemin and vitamin K to achieve a bacterial concentration of about 5×10^5 CFU/mL. C. albicans was diluted in Roswell Park Memorial Institute (RPMI 1640) medium with glutamine and without bicarbonate (GIBCO by Life Technologies, Green Island, N.Y., USA) which was buffered to pH 7.0 with 0.165 M of [3-(N-morpholino) propanesulfonic acid] (MOPS) (dot scientific inc., Burton, Mich., USA) to achieve a fungal concentration of about 1.5×10^3 CFU/mL. Compounds and control drugs were added in the first row of the 96-well plates and serially diluted with the corresponding media containing bacteria/fungi. Plates were then, incubated aerobically at 37° C. for 18-20 hours (for S. aureus and E. coli). […]

[2] = system: Gram-positive strains; assay: Relative MIC compared to reference drugs (FIG. 3); format: cell-based
From the text: FIG. 3. Relative MIC of MY31 compared to reference drugs.
For instance, it stopped the growth of VRSA strains with more potency than sorafenib (the prototype) and, as expected, much higher than vancomycin. […] Material and Methods

Compound | MIC [1] [µg/mL] | bacteriostatic activity relative to tested compounds and positive control antibiotics [2]
O=C(Nc1cccc(Nc2ccc(Cl)nn2)c1)Nc1ccc(Cl)c(Cl)c1 [MY14, 1-(3-((6-chloropyridazin-3-yl)amino)phenyl)-3-(3,4-dichlorophenyl)urea] | 2 to 8 (≈ 4.89 to 19.6 µM) | 
O=C(Nc1ccc(-c2ccc(=O)[nH]n2)cc1)Nc1ccc(Cl)c(Cl)c1 [MY21, 1-(3,4-dichlorophenyl)-3-(4-(6-oxo-1,6-dihydropyridazin-3-yl)phenyl)urea] | 0.5 to 1 (≈ 1.33 to 2.67 µM) | 
O=C(Nc1ccc(Oc2ccc(=O)[nH]n2)cc1)Nc1ccc(Cl)c(Cl)c1 [MY24, 1-(3,4-dichlorophenyl)-3-(4-((6-oxo-1,6-dihydropyridazin-3-yl)oxy)phenyl)urea] | 0.5 to 1 (≈ 1.28 to 2.56 µM) | 
O=C(Nc1ccc(Oc2ccc(=O)[nH]n2)cc1)Nc1ccc(Cl)c(C(F)(F)F)c1 [MY31, 1-(4-chloro-3-(trifluoromethyl)phenyl)-3-(4-((6-oxo-1,6-dihydropyridazin-3-yl)oxy)phenyl)urea] | 0.5 to 1 (≈ 1.18 to 2.35 µM) | highest bacteriostatic activity among the tested compounds
